In patent US20020049205A1, “Pyrazole antimicrobial agents” (priority 2000, published 2002):

Legend:
[1] = biological target: T1, Sigma^70 saturated E. coli RNA Polymerase (Escherichia coli, UniProt P0A7Z4+P0A800+P0A8T7+P0A8V2); assay: IC50 assay, inhibition of RNA polymerase; type: biochemical; conditions: Table 1, compounds of Formula 1
T1 construct: purchased Epicenter
Description: One common assay involves evaluation of the compounds as RNA polymerase inhibitors. In this assay, buffer (250 mM KCl, 5% glycerol, 10 mM MgCl2, 0.1 mg/ml BSA) is combined with 6 mM β-M.E., PT5 DNA template, and 1.3 μg/rxn Sigma^70 saturated E. coli RNA Polymerase (Epicenter). The compound is then added in a manner not to exceed 5% DMSO. Nucleotide triphosphates are then added at the following concentration: 250 μM ATP, CTP and UTP with 100 μM cold CTP and 50 μM α-^32P CTP. The mixture is incubated for 10 min at about 37° C. A [2×] loading buffer is added and the mixture is then run on a 6% urea denaturing PAGE until bromophenol blue reaches the edge of plate. The gel is soaked (about 20 minutes in 10% MeOH and 10% acetic acid, to remove urea), then dried (about 55 minutes at about 85° C. (BioRad Gel Drier)) and exposed to a Phospho Imaging Plate for 1 hour. The plate is then read on a Fujix Bas1000 Imaging System and quantified using MacBas v2.0 software. An IC50 (in μM) can be calculated as the concentration of a drug which reduces the enzyme activity to 50% of the control.
In this assay, buffer (250 mM KCl, 5% Glycerol, 10 mM MgCl2, 0.1 mg/ml bovine serum albumin (BSA)) is combined with 6 mM β-mercaptoethanol, PT5 DNA template, and 1.3 μg/rxn Sigma^70 saturated E. coli RNA Polymerase (obtained from Epicenter). The compound is then added in a manner not to exceed 5% DMSO. Nucleotide triphosphates are then added at the following concentration: 250 μM ATP, CTP and UTP with 100 μM cold CTP and 50 μM α-32P CTP. The mixture is incubated for 10 min at about 37° C. A [2×] loading buffer is added and the mixture is then run on a 6% urea denaturing PAGE until bromophenol blue reaches the edge of plate. The gel is soaked (about 20 minutes in 10% MeOH and 10% acetic acid, to remove urea), then dried (about 55 minutes at about 85° C. (BioRad Gel Drier)) and exposed to a Phospho Imaging Plate for 1 hour. The plate is then read on a Fujix Bas1000 Imaging System and quantified using MacBas v2.0 software. An IC50 (in μM) can be calculated as the concentration of a compound of the invention that reduces the enzyme activity to 50% of the control. For the sake of clarity, the above-described assay is used to determine the IC50 values referenced in the claims. However, the skilled artisan will recognize that other methods can be used to determine an IC50 value.

E.c(tolC) = assay: Minimum Inhibitory Concentration assay, E.c(tolC); type: cell-based; conditions: 16 h, read-out: MIC (μM) E.c(tolC)
Description: (§1) For Minimum Inhibitory Concentration (MIC) determinations for selected bacteria, log phase growing bacteria are re-suspended at 1×10^5 bacteria per mL in LB medium. The compound is added and two-fold dilutions are made. The final volume in the 96-well plate is about 100 μL. The plate is incubated at 37° C. in the dark with shaking. After 16 hours of incubation, growth is monitored by reading A600 or by visual inspection. MIC is defined as the minimum concentration of drug resulting in inhibition of visible growth of bacterial under the conditions described (above) in National Committee for Clinical Laboratory Standards 1993. Methods for dilution antimicrobial susceptibility tests for bacteria that grow aerobically. Approved standard M7-A3; National Committee for Clinical Laboratory Standards: Villanova, Pa.
as §1, with “MIC” for “Minimum Inhibitory Concentration (MIC)”

S. au = assay: Minimum Inhibitory Concentration assay, S. au; type: cell-based; conditions: LB medium, 16 hours, 37° C.; Table 1
Description: as §1
as §1, with “MIC” for “Minimum Inhibitory Concentration (MIC)”

B. su = assay: Minimum Inhibitory Concentration assay, B. su; type: cell-based; conditions: LB medium, 16 hours, 37° C.; Table 1
Description: as §1
as §1, with “MIC” for “Minimum Inhibitory Concentration (MIC)”

T1 sequence (P0A8V2 whole entry): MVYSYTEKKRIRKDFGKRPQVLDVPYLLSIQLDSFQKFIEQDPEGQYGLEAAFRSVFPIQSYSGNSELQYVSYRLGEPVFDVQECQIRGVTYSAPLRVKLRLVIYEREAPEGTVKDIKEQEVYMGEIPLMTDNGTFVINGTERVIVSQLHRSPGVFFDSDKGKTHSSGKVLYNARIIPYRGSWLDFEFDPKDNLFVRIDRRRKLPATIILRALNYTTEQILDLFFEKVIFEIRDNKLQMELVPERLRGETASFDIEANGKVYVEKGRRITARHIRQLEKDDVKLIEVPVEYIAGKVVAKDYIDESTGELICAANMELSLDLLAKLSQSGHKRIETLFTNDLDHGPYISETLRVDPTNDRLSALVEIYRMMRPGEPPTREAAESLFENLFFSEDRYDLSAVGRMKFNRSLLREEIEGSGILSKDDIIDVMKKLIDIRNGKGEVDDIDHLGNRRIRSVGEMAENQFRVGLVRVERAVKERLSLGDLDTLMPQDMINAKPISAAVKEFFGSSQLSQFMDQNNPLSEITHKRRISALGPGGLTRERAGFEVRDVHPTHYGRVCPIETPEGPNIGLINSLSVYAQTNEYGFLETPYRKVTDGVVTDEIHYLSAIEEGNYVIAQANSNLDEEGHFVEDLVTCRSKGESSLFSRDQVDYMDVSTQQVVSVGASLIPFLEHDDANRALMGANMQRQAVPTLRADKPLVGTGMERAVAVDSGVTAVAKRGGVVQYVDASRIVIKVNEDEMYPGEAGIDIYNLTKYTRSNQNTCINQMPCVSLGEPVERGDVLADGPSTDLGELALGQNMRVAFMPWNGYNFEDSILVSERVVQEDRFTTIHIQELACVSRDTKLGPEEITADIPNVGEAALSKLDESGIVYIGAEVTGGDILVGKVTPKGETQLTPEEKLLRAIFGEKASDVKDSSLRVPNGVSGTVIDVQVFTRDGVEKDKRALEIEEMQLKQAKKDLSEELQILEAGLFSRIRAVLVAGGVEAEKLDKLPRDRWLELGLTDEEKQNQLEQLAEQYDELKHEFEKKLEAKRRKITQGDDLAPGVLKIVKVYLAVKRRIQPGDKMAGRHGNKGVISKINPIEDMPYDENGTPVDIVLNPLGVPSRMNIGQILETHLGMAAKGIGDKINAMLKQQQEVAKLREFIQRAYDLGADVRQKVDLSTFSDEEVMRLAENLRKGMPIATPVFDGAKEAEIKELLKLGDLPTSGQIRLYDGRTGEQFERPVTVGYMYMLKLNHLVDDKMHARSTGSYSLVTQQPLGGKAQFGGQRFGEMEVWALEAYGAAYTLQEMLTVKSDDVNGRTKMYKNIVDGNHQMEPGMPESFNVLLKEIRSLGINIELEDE
T1 sequence (P0A8T7 whole entry): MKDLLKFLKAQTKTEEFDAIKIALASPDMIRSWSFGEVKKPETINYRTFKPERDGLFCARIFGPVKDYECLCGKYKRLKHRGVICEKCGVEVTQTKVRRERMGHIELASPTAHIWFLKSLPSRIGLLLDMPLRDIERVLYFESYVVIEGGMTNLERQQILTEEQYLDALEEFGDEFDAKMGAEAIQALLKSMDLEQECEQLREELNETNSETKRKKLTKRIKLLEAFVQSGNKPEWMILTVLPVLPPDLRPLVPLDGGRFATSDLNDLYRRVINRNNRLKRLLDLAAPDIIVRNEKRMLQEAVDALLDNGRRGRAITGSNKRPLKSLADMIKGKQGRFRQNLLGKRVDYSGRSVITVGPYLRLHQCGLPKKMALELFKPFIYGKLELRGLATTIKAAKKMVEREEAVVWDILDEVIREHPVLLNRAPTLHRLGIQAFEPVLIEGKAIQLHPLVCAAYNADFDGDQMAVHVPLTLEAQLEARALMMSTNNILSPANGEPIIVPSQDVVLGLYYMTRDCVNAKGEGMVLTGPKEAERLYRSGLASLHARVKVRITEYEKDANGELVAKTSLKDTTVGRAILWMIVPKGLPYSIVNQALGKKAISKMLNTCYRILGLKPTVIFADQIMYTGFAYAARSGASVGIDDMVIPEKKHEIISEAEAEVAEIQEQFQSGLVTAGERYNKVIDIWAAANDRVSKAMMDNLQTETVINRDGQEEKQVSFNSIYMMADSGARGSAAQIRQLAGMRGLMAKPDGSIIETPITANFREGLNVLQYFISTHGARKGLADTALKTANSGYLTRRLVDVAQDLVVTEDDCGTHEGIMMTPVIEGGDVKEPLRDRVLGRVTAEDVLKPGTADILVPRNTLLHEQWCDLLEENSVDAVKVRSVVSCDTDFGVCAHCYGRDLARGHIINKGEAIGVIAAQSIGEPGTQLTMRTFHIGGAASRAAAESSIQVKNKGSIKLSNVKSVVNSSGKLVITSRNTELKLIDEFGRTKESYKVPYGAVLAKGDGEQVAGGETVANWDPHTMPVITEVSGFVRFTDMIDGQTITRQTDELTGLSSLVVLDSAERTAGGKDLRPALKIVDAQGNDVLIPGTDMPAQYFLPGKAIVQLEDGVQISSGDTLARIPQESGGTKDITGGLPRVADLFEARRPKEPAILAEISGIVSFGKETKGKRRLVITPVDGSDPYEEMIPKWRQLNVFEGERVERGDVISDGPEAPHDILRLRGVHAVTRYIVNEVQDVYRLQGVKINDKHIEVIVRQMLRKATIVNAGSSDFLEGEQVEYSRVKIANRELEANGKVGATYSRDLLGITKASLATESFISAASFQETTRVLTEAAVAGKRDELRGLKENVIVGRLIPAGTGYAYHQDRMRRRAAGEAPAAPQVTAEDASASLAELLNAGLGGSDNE
T1 sequence (P0A7Z4 whole entry): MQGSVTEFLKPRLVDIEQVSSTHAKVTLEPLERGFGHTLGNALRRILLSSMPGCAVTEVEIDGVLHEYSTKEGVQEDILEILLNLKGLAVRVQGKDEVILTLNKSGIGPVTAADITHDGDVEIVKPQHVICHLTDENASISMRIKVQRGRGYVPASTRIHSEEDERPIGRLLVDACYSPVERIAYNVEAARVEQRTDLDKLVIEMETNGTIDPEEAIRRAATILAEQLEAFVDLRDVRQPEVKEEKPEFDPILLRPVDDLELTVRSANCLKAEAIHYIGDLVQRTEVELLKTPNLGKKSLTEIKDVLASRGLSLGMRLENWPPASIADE
T1 sequence (P0A800 whole entry): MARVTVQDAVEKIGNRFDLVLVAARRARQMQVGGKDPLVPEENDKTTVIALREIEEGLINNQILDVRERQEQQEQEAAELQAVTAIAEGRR

FC(F)(F)c1cc(-c2cn[nH]c2-c2ccccc2)ccc1Cl [Example 10]
< 500 µM: IC50 [1] | MIC (E.c(tolC)) | MIC (S. au) | MIC (B. su)
